Data as given in patent publication US6166205A, “2-Aryl-4-(1-[4-heteroaryl]piperazin-1-yl)methylimidazoles: dopamine . D.sub4 receptor subtype ligands” (Neurogen Corporation, priority 1999, dated 2000).
Where a name gives a salt, the structure may show the parent alone.

Key:
[1] = molecular target: D4 receptor; experiment: dopamine D4 receptor binding assay (3H-YM 09151-2); parameters: species or system African Green monkey; settings: 0.5 nM 3H-YM 09151-2; COS cells with recombinantly produced D4 receptors; Table 2: rat striatal homogenates
Method: (§1) Assays For D2 And D4 Receptor Binding Activity
(§2) Pellets of COS cells containing recombinantly produced D2 or D4 receptors from African Green monkey are used for the assays. A sample is homogenized in 100 volumes (w/vol) of 0.05 M Tris HCl buffer at 4° C. and pH 7.4 and then centrifuged at 30,000×g and resuspended and rehomogenized. The sample is again centrifuged at 30,000×g and the final tissue sample is frozen until use. The tissue is resuspended 1:20 (wt/vol) in 0.05 M Tris HCl buffer containing 100 mM NaCl.
(§3) Incubations are carried out at […] and contain 0.4 ml of tissue sample, 0.5 nM ^3 H-YM 09151-2(Nemonapride, cis-5-Chloro-2-methoxy-4-(methylamino)-N-(2-methyl-2-(phenylmethyl)-3-pyrrolidinyl)benzamide) and the compound of interest in a total incubation of 1.0 ml. Nonspecific binding is defined as that binding found in the presence of […] spiperone; without further additions, nonspecific binding is less than 20% of total binding. The binding characteristics of representative compounds of this invention for the D2 and D4 receptor subtypes are shown in Table 2 for rat striatal homogenates.

[2] = molecular target: D2 receptor (Chlorocebus aethiops, UniProt P52702); experiment: dopamine D2 receptor binding assay (3H-YM 09151-2); parameters: species or system African Green monkey; settings: 0.5 nM 3H-YM 09151-2; COS cells with recombinantly produced D2 receptors; Table 2: rat striatal homogenates
Method: as §1, §2, §3

Chain of D2 receptor (P52702 whole entry): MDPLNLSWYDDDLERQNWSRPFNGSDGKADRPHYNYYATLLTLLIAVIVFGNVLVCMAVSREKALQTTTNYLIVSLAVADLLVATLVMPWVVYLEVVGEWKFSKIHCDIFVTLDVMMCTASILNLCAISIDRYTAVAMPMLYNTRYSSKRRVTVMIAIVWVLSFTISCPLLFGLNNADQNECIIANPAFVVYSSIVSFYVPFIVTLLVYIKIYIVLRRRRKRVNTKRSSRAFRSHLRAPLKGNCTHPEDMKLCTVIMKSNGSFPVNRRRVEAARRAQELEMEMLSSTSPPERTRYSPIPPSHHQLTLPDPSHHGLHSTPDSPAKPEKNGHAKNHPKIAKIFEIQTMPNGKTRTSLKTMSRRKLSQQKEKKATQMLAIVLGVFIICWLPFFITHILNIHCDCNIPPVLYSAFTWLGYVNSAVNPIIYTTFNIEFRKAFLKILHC

Ki [1] [µM]	Ki [2] [µM]	Structure (SMILES)
0.014	> 1	c1ccc(-c2ncc(CN3CCN(c4ccc5c(n4)CCCC5)CC3)[nH]2)cc1 [Compound 1a, (1-[(2-phenylimidazol-5-yl)methyl]-4-(2-5,6,7,8-tetrahydroquinolyl)piperazine hydrobromide]
0.009	0.784	c1ccc(-c2ncc(CN3CCN(c4ccc5ccccc5n4)CC3)[nH]2)cc1 [Compound 2a, 1-[(2-phenylimidazol-5-yl)methyl]-4-(2-quinolyl)piperazine hydrobromide]
0.017	0.978	Fc1ccccc1-c1ncc(CN2CCN(c3ccc4ccccc4n3)CC2)[nH]1 [Compound 3a, 1-{[2-(2-fluorophenyl)imidazol-5-yl]methyl}-4-(2-quinolyl)piperazine oxalate]
–	2.68	c1ccc(-c2ncc(CN3CCN(c4ncc5ccccc5n4)CC3)[nH]2)cc1 [Compound 4a, 2-{4-[(2-phenylimidazol-5-yl)methyl]piperazinyl}quinazoline]
–	2.05	c1ccc(-c2ncc(CN3CCN(c4cnc5ccccc5n4)CC3)[nH]2)cc1 [Compound 5, 2-{4-[(2-phenylimidazol-5-yl)methyl]piperazinyl}quinoxaline]
